Consider 62 compounds from a melting point compilation (Tetko et al.; mined from patent text by program, amines drawn as free bases though some values may be those of a salt).

Broadly, the melting point is the temperature of the solid-liquid transition. For `CC(=O)Oc1ccc(CC(CC(=O)O)N2C(=O)c3ccccc3C2=O)cc1` (configuration not stated), the melting point lay within 151 to 154 °C. `CN=c1c2c(C)c(C)n(-c3ccccc3)c2nc(C)n1C`: the melting point was in the range of 132 to 133 °C. In turn, `CCOC(=O)c1ccccc1NC(=O)CBr` showed a melting point of 65 to 66 °C.

`Clc1ccc2nc(CN3CCN(c4ccccc4)CC3)cn2c1` registered a melting point of 128 to 130 °C. `COc1nsc(NC(=O)CBr)n1` yielded a melting point of 198 to 199 °C. Regarding `CCC(C)C(C)C(=O)Nc1ccc2ncnc(NC=C(C(=O)OC)C(=O)OC)c2c1` (configuration not stated), the melting point is 216 to 217 °C. The compound `NS(=O)(=O)Cc1ccc(NCC(=O)N2CCC(Oc3ccc(Cl)cc3)CC2)cc1` came in with a melting point of 180 to 187 °C. Turning to `O=C(Nc1ccc(SC(F)(F)F)cc1)c1cc(Cl)c2ccccc2c1O`, the melting point was 172 to 175 °C. Then `O=C(N(Cc1ccccc1)Cc1cccs1)C12CC3CC(CC(C3)C1)C2`, with 130 to 132 °C; and `CC(C)(CC(=O)O)C(Br)CC(Cl)(Cl)Cl` (configuration not stated), with 123 to 124 °C; and `COc1cc(Nc2nccc(-c3nc(C)c(C)s3)n2)cc(OC)c1OC`, with 207 °C. Then `COC1=CC(C)=NN(NC(=O)N=NS(=O)(=O)C2SCCN2OCC=CCl)N1` (configuration not stated), with 145 to 147 °C; and `COc1ccc(-c2cc(-c3nccs3)c(=O)n(C)c2-c2ccc(C)o2)cc1`, with 205 to 206 °C. As for `COc1ccc(CCNc2nc(C)c(CCO)c(=O)[nH]2)cc1`, the figure is 180 °C; as for `CCn1c(-c2sc(NC(=O)c3ccncc3)nc2-c2ccco2)cccc1=O`, > 300 °C; as for `O=C(CNC(=O)c1ccc(Cl)cc1)c1ccsc1`, 160 to 161 °C. Compound `CCCc1nc2c(N)nc3ccccc3c2n1CC1(O)CCOCC1` gave a melting point of 231 to 233 °C.

With `O=c1c2c(c1=O)Nc1cc(Cl)c(Cl)cc1N2`, the melting point is > 360 °C. `Cc1cc(-c2ccc(F)cc2)ccc1C(=O)Nc1ccc2cc(CN3CCCC3)cnc2c1C`: the melting point lay in the range of 200 to 203 °C. As to `CCCCCCCC1CC(C(=O)Nc2c(C(C)C)cccc2C(C)C)C(=O)O1` (configuration not stated), the melting point was in the range of 95 to 98 °C.

For the compound `O=c1c2c(Cc3ccccc3)n[nH]c2c2cccnc2n1-c1cccc(F)c1`, the melting point is 298 to 299 °C. As for `CCN(CC)Cc1nc(-c2ncn3c2[C@@H]2CCN2C(=O)c2ccccc2-3)no1`, the melting point was 209 to 211 °C. Then `CS(=O)c1ccc(COS(C)(=O)=O)cc1` (configuration not stated), with 63 to 65 °C; and `Cc1ccc(F)c2c1NC(=O)C21COc2cc3c(cc21)CCO3` (configuration not stated), with > 250 °C; and `O=S1C(c2cccc(-c3ccc(O)c(C45CC6CC(CC(C6)C4)C5)c3)n2)=CN=C1N1CCOCC1` (configuration not stated), with 339 to 343 °C. `Cc1ccc2nc3ccc(=O)c(Cl)c-3sc2c1` returned a melting point of 218 °C. With `Cc1cc(S(N)(=O)=O)ccc1-n1nc(C(F)(F)F)cc1-c1ccc(-c2ccco2)cc1`, the melting point was 87 to 89 °C. The compound `COc1cccc(CC(=O)O)c1OCCCc1cn(-c2nnc(C(F)(F)F)s2)nc1C(C)C` displayed a melting point of 114 to 115 °C. For the compound `CCOc1nn(-c2ccc(C(F)(F)F)cn2)cc1CCCOc1ccc(CCC(=O)O)cc1OC(C)C`, the melting point fell in the range of 93 to 94 °C. `OCc1coc(/C=C/c2ccccc2)n1` displayed a melting point of 94 to 95 °C.

In the case of `CCCCCCCCCCCC1CCC(O)C(=O)O1` (configuration not stated), the melting point lay in the range of 95 to 96 °C. As for `Cn1cc(C2=C(c3cn(CCCS(C)(=O)=O)c4ccccc34)C(=O)NC2=O)c2ccccc21`, the melting point is 225 to 227 °C. As for `CC(C)CC1(C(CCN2C(=O)c3cccc(F)c3C2=O)C(=O)NO)CCN(CCc2ccccc2)C1=O` (configuration not stated), the melting point was in the range of 145 to 146 °C.

`CC(C)(CN)c1ccc(C(=O)Nc2cn3cc(-n4ccnc4)ccc3n2)cc1` gave a melting point of 258 to 260 °C. In the case of `CC1=NN(C(=O)NS(=O)(=O)c2ncccc2C(F)(F)F)C(c2ccccc2)C1` (configuration not stated), the melting point is 185 to 187 °C. For `O=S(=O)(NCc1ccnc2c(Cl)cccc12)c1ccc(-c2ccc(C(F)(F)F)cc2C(F)(F)F)cc1`, the melting point lay in the range of 184 to 185 °C. Regarding `CSc1nc(Cl)c(C#N)s1`, the melting point fell in the range of 83 to 87 °C.

As to `COc1ccccc1-c1ccc(C[C@H](NC(=O)c2c(Cl)cccc2Cl)C(=O)O)cc1C(C)=O`, the melting point lay in the range of 87 to 89 °C.

For the compound `CCCn1c(C)nc(N2CCc3ccccc3CC2)c([N+](=O)[O-])c1=O`, the melting point fell in the range of 164 to 170 °C. `O=C(CCCN1CCC2(CC(O)c3cc(Cl)cc(Cl)c32)C1)c1ccc(F)cc1` (configuration not stated) showed a melting point of 149 to 152 °C. As to `COc1cc(OC)nc(Oc2cccc3c2C(=O)OC3OCC#N)n1` (configuration not stated), the melting point lay within 99 to 102 °C. Take `CS(=O)(=O)c1ccc(N2CCc3[nH]c4c(cnc5cc(Cl)ccc54)c3C2)cc1`: the melting point is > 250 °C.

For the compound `O=C1NC(=O)C(N2C(=O)c3ccccc3C2=O)CC1O` (configuration not stated), the melting point lay in the range of 195 to 230 °C. As to `NC(=O)c1nc(-c2cccc(O)c2)nc2c1[nH]c(=O)n2-c1ccccc1C(F)(F)F`, the melting point lay in the range of 363 to 365 °C. Compound `COC(=O)C(=O)NC1CC(C)(C)N(OC2CCCCC2)C(C)(C)C1` registered a melting point of 124 to 126 °C. With `Cc1ccc(-c2[nH]c(-c3ccc4ccccc4c3)nc2C(=O)Nc2nccs2)cc1`, the melting point was > 250 °C. On to `CCN(CC)C1=C2N=c3cc(Cl)ccc3=C2Oc2ccccc2N1C`, for which the melting point fell in the range of 127 to 128 °C.

As to `O=C(O)c1ccc(OCCn2ccnc2)c(Cl)c1`, the melting point was found to be 204 °C.

Regarding `O=C(NCc1ccccc1)c1ccc2[nH]ccc2c1`, the melting point was in the range of 155 to 160 °C. Compound `CS(=O)(=O)N1CCN([C@@H](CNS(=O)(=O)c2ccc(OCc3ccnc(-c4ccccc4)c3)cc2)C(=O)NO)CC1` yielded a melting point of 100 °C. The compound `CCOC(=O)C(C)(C)Oc1ccc(OCCn2c(=O)sc3cc(C(=NO)c4ccccc4)ccc32)cc1` registered a melting point of 60 to 62 °C.

`CCOC(=O)c1ncc2[nH]c3ccc(C4COC(O)C4)cc3c2c1C` (configuration not stated) came in with a melting point of 177 to 180 °C.

`O=c1c(CCC(O)c2ccncc2)cc2cccnc2n1-c1cccc([N+](=O)[O-])c1` (configuration not stated) gave a melting point of 235 to 236 °C. `O=C1CC(c2ccccc2)Nc2ccccc2N1Cc1ccccc1` (configuration not stated) returned a melting point of 132 to 133 °C. `c1ccc(CNc2ccc3ccccc3c2-c2c(P(c3ccccc3)c3ccccc3)ccc3ccccc23)cc1` gave a melting point of 70.1 °C. The compound `CCCCOC(Cc1ccc(OCCN2c3ccccc3Oc3ccccc32)cc1)C(=O)O` (configuration not stated) displayed a melting point of 84 to 88 °C. Then `CC(F)(F)c1ccc(Oc2ccc(C3CCCN4CCS(=O)(=O)N=C34)cc2)cc1` (configuration not stated), with 171 to 172 °C; and `CC(C)Oc1ccc(-n2c(C(=O)NCCNC(=O)OC(C)(C)C)cc3cc(Oc4ccc(C(F)(F)F)cn4)ccc32)cc1`, with 188 to 190 °C. The compound `Cc1cc(Cl)cc(C(=NCCC(=O)O)c2ccc(Cl)cc2)c1O` gave a melting point of 138 °C. Then `CC(=O)NC(C)C1=NN(Cc2ccccc2)C(C)NC1=O` (configuration not stated), with 196 to 203 °C. As for `CCCOc1ccc(C)cc1C(N)=O`, the figure is 112 to 115 °C; as for `CC(CNC(=O)N(CCC(F)(F)F)CCC12CC3CC(CC(C3)C1)C2)Cc1ccncc1` (configuration not stated), 81.1 to 84.1 °C.
